Tests used:
[1] = Pulmonary absorption of human insulin co-administered intratracheally with P2Y receptor agonists to anesthetized rabbits (plasma insulin by radioimmunoassay); type: in vivo, New Zealand white rabbits; details: for Effect of the P2Y agonist on t1/2, Cmax and F of insulin administered to the lungs: co-administered with insulin to rabbit lungs, summary in words; for Cmax of insulin / F (bioavailable fraction) of insulin / t1/2 of insulin: rabbit, mean±SD, n=4
Method: Briefly, New Zealand white rabbits were anesthetized with Hypnovel (Roche, Welwyn Garden City, UK), 0.3 mg/kg i.v. via cannula in the ear, and Hypnorrn (Janssen Animal Health, Grove, Oxford, UK), 0.1 mg/kg via intramuscular injection. Once intubated with a polyethylene endotracheal tube (i.d. 4 mm, o.d. 5 mm; Portex, UK) coated with a layer of xylocalne gel (Astra Pharmaceuticals, Kings Langley, UK), a second, smaller polyethylene dosing tube was inserted inside the endotracheal tube to the point of the bifurcation of the trachea.

[2] = EDTA co-administered; cited from earlier work
[3] = insulin 10 U/kg intratracheal with Up4U 0.2 mg (2.0 mg/mL)
[4] = insulin 10 U/kg intratracheal with Up4U 0.62 mg (6.2 mg/mL)

Compound	Effect of the P2Y agonist on t1/2, Cmax and F of insulin administered to the lungs [1]	Cmax of insulin [1, 3] [μU/mL]	F (bioavailable fraction) of insulin [1, 3] [%]	t1/2 of insulin [1, 3] [h]	Cmax of insulin [1, 4] [μU/mL]	F (bioavailable fraction) of insulin [1, 4] [%]	t1/2 of insulin [1, 4] [h]	Cmax of insulin ([1]; insulin 10 U/kg intratracheal with UTP 0.34 mg (3.4 mg/mL)) [μU/mL]	Cmax of insulin ([1]; insulin 10 U/kg intratracheal with UTP 1.5 mg (15 mg/mL)) [μU/mL]	Effect on uptake of calcitonin following intratracheal administration to the lungs [2]
O=c1ccn([C@@H]2O[C@H](COP(=O)(O)OP(=O)(O)OP(=O)(O)OP(=O)(O)OC[C@H]3O[C@@H](n4ccc(=O)[nH]c4=O)[C@H](O)[C@@H]3O)[C@@H](O)[C@H]2O)c(=O)[nH]1 [Up4U, P^1,P^4-di(uridine 5′-)tetraphosphate]	increase the half life (t1/2), maximal plasma concentration (Cmax) and the overall bioavailable fraction (F) of insulin	531 ± 89.5	8.07 ± 3.40	1.33 ± 0.7102	655 ± 46.17	5.47 ± 1.03	0.798 ± 0.0372	–	–	–
O=c1ccn([C@@H]2O[C@H](COP(=O)(O)OP(=O)(O)OP(=O)(O)O)[C@@H](O)[C@H]2O)c(=O)[nH]1 [UTP, uridine 5′-triphosphate]	increase the half life (t1/2), maximal plasma concentration (Cmax) and the overall bioavailable fraction (F) of insulin	–	–	–	–	–	–	828 ± 42.4	1515 ± 297	–
O=C(O)CN(CCN(CC(=O)O)CC(=O)O)CC(=O)O [EDTA]	–	–	–	–	–	–	–	–	–	did increase

Source: patent US20090004101A1, “Method and Means for Enhanced Pulmonary Drug Delivery” (UNIVERSITY COLLEGE CARDIFF CONSULTANTS LIMITED, priority 2004, published 2009)
